From patent US6100074A, “Mutant mono-oxygenase cytochrome P-450 cam” (BG plc, priority 1994, dated 2000) come the findings set out here.

Assay [1] has as its target T1, P450cam mutant Y96A, C334A (Pseudomonas putida, UniProt P00183, C335A/Y97A).
T1 construct: reconstituted with putidaredoxin and putidaredoxin reductase
Type of assay: biochemical, P. putida. The note with it: also contains C334A. Here is the method:
A solution containing 10 μM putidaredoxin, 2 μM putidaredoxin reductase, 1 μM cytochrome P-450cam mono-oyxgenase (wild-type or mutant) and 1 mM diphenylmethane in 100 mM KC1, 20 mM KH2 PO4 pH7.4 was preincubated at 25° C. in a shaker for 5 min. The enzymatic reaction was initiated by firstly adding NADH to a total concentration of 2 mM. Further four aliquots of NADH (to increase the NADH concentration by 1 mM each time) were added in intervals of 5 min and the reaction quenched after 30 min by adding 0.5 ml chloroform. The chloroform layer was analysed by gas chromatography.
(§1) Reaction products for some substrate compounds have been purified by high performance liquid chromatography and identified by mass spectroscopy, nuclear magnetic resonance, and/or co-elution. […] Table 4(a) to 4(h) details the product distributions for mutant and substrate combinations where this has been elucidated to date.
All mutants listed below also contain the C334A mutation.
Turnover rate measured as NADH consumption rate
(nmole NADH/nmole P450cam/s).

The target in assay [2] is T2, wild type P450cam (Pseudomonas putida, UniProt P00183). Put plainly: Turnover rate measured as NADH consumption rate, wild type. The class given is biochemical, P. putida. Set-up: reconstituted with putidaredoxin and putidaredoxin reductase.
Target sequence in this assay (P00259 whole entry): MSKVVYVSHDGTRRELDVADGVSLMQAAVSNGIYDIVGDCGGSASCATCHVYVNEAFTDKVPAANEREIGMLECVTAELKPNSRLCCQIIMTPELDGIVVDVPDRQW
Target sequence in this assay (P00183 whole entry): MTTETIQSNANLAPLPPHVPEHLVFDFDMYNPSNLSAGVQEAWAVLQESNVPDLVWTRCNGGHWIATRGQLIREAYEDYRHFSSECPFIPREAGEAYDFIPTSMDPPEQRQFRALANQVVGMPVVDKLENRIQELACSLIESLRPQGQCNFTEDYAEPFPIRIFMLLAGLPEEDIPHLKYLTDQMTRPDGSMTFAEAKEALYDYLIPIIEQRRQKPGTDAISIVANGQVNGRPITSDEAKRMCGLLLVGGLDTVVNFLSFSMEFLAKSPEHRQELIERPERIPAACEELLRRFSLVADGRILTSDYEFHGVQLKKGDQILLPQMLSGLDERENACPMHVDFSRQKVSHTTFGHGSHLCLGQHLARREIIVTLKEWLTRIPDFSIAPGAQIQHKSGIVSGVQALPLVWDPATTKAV
Target sequence in this assay (P16640 whole entry, further chain): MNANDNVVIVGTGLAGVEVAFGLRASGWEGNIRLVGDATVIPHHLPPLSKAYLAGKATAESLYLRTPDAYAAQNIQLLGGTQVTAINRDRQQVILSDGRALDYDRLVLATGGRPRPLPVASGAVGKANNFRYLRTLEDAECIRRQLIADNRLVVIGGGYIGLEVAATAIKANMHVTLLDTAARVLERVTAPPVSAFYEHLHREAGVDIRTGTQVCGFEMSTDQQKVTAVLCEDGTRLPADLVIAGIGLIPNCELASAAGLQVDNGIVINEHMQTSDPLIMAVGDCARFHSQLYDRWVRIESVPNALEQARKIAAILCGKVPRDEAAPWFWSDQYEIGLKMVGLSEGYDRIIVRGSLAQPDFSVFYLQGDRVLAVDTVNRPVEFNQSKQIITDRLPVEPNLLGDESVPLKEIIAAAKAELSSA
Assay [3] has as its target T3, P-450cam mutant Y96A (Pseudomonas putida, UniProt P00183, Y97A). The experiment in a line: biochemical. Type of assay: binding. The note with it: Mutant Y96A; 200 μM DTT, 200 μM test compound, phosphate buffer; read-out: Vs DTT (percentage displacement of DTT bound to P-450).
Assay [4] concerns the target T4, P450cam mutant Y96V, C334A (Pseudomonas putida, UniProt P00183, C335A/Y97V).
T4 construct: reconstituted with putidaredoxin and putidaredoxin reductase
Put plainly: Product distribution following oxidation of substrates, Y96V (also C334A). Type of assay: biochemical, P. putida. The method, then: (§2) […] The enzymatic reaction was initiated by firstly adding NADH to a total concentration of 2 mM. Further four aliquots of NADH (to increase the NADH concentration by 1 mM each time) were added in intervals of 5 min and the reaction quenched after 30 min by adding 0.5 ml chloroform. The chloroform layer was analysed by gas chromatography.
as §1
(§3) Product structure and distributions following oxidation of substrates
(§4) active site mutants. All mutants shown below also contain the C334A

For assay [5], the target named is T2, wild type P450cam. The experiment in a line: Product distribution following oxidation of substrates, WT. Type of assay: biochemical, P. putida. On the set-up: reconstituted with putidaredoxin and putidaredoxin reductase. Here is the method: as §2, §1, §3
Target sequence in this assay (P00259 whole entry): as the sequence (P00259 whole entry) above
Target sequence in this assay (P00183 whole entry): as the sequence (P00183 whole entry) above
Target sequence in this assay (P16640 whole entry, further chain): as the sequence (P16640 whole entry, further chain) above
Assay [6] deals with T5, P450cam mutant F87A-F96G-F193A (C334A) (Pseudomonas putida, UniProt P00183, C335A/F194A/F88A/Y97G).
T5 construct: reconstituted with putidaredoxin and putidaredoxin reductase
Type of assay: biochemical, P. putida. Here is the method: as §2, §1, §3, §4

Assay [7] addresses T1, P450cam mutant Y96A, C334A. Type of assay: biochemical, P. putida. Here is the method: as §2, §1, §3, §4
The target of assay [8] is T6, P450cam mutant Y96F, C334A (Pseudomonas putida, UniProt P00183, C335A/Y97F).
T6 construct: reconstituted with putidaredoxin and putidaredoxin reductase
The class given is biochemical, P. putida. The method, then: as §2, §1, §3, §4

For assay [9], the target named is T7, P450cam mutant Y96L, C334A (Pseudomonas putida, UniProt P00183, C335A/Y97L).
T7 construct: reconstituted with putidaredoxin and putidaredoxin reductase
Put plainly: Product distribution following oxidation of substrates, Y96L (also C334A). Type of assay: biochemical, P. putida. Here is the method: as §2, §1, §3, §4

Assay [10] deals with T3, P-450cam mutant Y96A. Type of assay: biochemical. Set-up: key: Those substrates where oxidation has been demonstrated by means of NADH turnover are marked with a + sign.
The target of assay [11] is T2, wild type P450cam. Type of assay: binding. The note with it: Wild type; 200 μM test compound, phosphate buffer pH 7.4.
Target sequence in this assay (P00183 whole entry): as the sequence (P00183 whole entry) above
Assay [12] addresses T2, wild type P450cam. The experiment in a line: biochemical. Type of assay: binding. The note with it: Wild type; 200 μM DTT, 200 μM test compound, phosphate buffer; read-out: Vs DTT (percentage displacement of DTT bound to P-450).
Target sequence in this assay (P00183 whole entry): as above

T4 sequence (P16640 whole entry): as the sequence (P16640 whole entry, further chain) above
T4 sequence (P00259 whole entry, further chain): as the sequence (P00259 whole entry) above
T4 sequence (P00183 2-415 Y97V/C335A): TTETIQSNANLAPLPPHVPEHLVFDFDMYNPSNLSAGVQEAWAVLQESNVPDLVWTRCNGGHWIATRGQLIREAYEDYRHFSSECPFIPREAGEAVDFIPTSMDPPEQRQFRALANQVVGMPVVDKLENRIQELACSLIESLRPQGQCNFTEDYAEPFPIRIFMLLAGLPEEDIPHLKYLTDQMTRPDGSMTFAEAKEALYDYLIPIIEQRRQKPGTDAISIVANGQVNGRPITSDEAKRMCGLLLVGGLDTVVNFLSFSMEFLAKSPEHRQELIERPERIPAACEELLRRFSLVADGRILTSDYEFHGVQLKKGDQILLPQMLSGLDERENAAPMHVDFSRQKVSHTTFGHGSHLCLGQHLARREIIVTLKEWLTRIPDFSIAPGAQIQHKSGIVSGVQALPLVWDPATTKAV
T6 sequence (P16640 whole entry): as the sequence (P16640 whole entry, further chain) above
T6 sequence (P00183 2-415 Y97F/C335A): as the sequence (P00183 2-415 Y97V/C335A) above, with V96F counted along it
T6 sequence (P00259 whole entry, further chain): as the sequence (P00259 whole entry) above
T3 sequence (P00183 2-415 Y97A): as the sequence (P00183 2-415 Y97V/C335A) above, with V96A, A334C counted along it
T1 sequence (P00259 whole entry): as the sequence (P00259 whole entry) above
T1 sequence (P00183 2-415 Y97A/C335A): as the sequence (P00183 2-415 Y97V/C335A) above, with V96A counted along it
T1 sequence (P16640 whole entry, further chain): as the sequence (P16640 whole entry, further chain) above
T5 sequence (P00259 whole entry): as the sequence (P00259 whole entry) above
T5 sequence (P16640 whole entry, further chain): as the sequence (P16640 whole entry, further chain) above
T5 sequence (P00183 2-415 F88A/Y97G/F194A/C335A): as the sequence (P00183 2-415 Y97V/C335A) above, with F87A, V96G, F193A counted along it
T7 sequence (P00259 whole entry): as the sequence (P00259 whole entry) above
T7 sequence (P16640 whole entry, further chain): as the sequence (P16640 whole entry, further chain) above
T7 sequence (P00183 2-415 Y97L/C335A): as the sequence (P00183 2-415 Y97V/C335A) above, with V96L counted along it

`CC(C)CC(C)C` [2,4-dimethyl pentane]: the results for the “Turnover rate measured as NADH consumption rate” value (from here on “Turnover rate measured”) (in assay [1]; on wild type P450cam [2]) were 12.6 nmole NADH/nmole P450cam/s and 0.2 nmole NADH/nmole P450cam/s, respectively.
As for `CC(C)CC(C)(C)C` [2,2,4-trimethyl pentane], the entries for the “Turnover rate measured” value (in assay [1]; on wild type P450cam [2]) were 5.3 nmole NADH/nmole P450cam/s and 0.9 nmole NADH/nmole P450cam/s, respectively.
The matching figures for `CCCC(C)CCC` [4-methyl heptane]: 10.2 nmole NADH/nmole P450cam/s and 1.4 nmole NADH/nmole P450cam/s.
Take `c1ccc2c(c1)ccc1ccccc12` [Phenanthrene]: the percent displacement of bound DTT at 200 µM at P-450cam mutant Y96A [3] is 20%. For the same molecule, the Total products in assay [4] was 1.6 area/10^6; on wild type P450cam [5], 0.075 area/10^6; in assay [6], 0.065 area/10^6; in [7], 7.0 area/10^6; in assay [8] it was 4.5 area/10^6; in [9], 2.8 area/10^6. Also, the “Products (%): A” value came to 41% in [4] (phenanthrene); 38% at wild type P450cam [5] (phenanthrene); 27% in [6] (phenanthrene); 49% in [7] (phenanthrene); 41% in [8] (phenanthrene); 35.5% in [9] (phenanthrene). The “Products (%): B” value came out at 38% in assay [4] (phenanthrene); 15% at wild type P450cam [5] (phenanthrene); 41% in assay [6] (phenanthrene); 23% in assay [7] (phenanthrene); 31% in assay [8] (phenanthrene); 41% in assay [9] (phenanthrene). For the same molecule, the “Products (%): C” value in assay [4] (phenanthrene) is listed as 11%; on wild type P450cam [5] (phenanthrene) it was 12%; in assay [6] (phenanthrene), 3%; in assay [7] (phenanthrene), 13%; in assay [8] (phenanthrene) it was 5%; in [9] (phenanthrene), 9%. Besides, the “Products (%): D” value in assay [4] (phenanthrene) is on record as 10%; on wild type P450cam [5] (phenanthrene), 35%; in assay [6] (phenanthrene), 29%; in assay [7] (phenanthrene), 15%; in assay [8] (phenanthrene) it was 23%; in assay [9] (phenanthrene) it was 14.5%. Besides, on P-450cam mutant Y96A [10], the “NADH turnover?” value is “+”.
Turning to `CCCC(C)(C)C` [2,2-dimethyl pentane], the “Turnover rate measured” value was 12.8 nmole NADH/nmole P450cam/s in assay [1] and 5.2 nmole NADH/nmole P450cam/s on wild type P450cam [2].
The matching figures for `CCC(C)CC` [3-methyl pentane]: 14.2 nmole NADH/nmole P450cam/s and 1.3 nmole NADH/nmole P450cam/s.
In the same order, the values of `CCCC(C)C` [2-methyl pentane] are 11.7 nmole NADH/nmole P450cam/s and 3.8 nmole NADH/nmole P450cam/s.
With `CCCCCCC` [n-Heptane], the percent displacement of bound DTT at 200 µM at P-450cam mutant Y96A [3] is 40%. The “Turnover rate measured” value is recorded as 4.4 nmole NADH/nmole P450cam/s in assay [1] and 2.7 nmole NADH/nmole P450cam/s at wild type P450cam [2]. The “ΔSpin high/low (percentage of P-450 converted from low- to high-spin)” value on wild type P450cam [11] is reported as 5%. Besides, the inhibition at 200 µM at wild type P450cam [12] was found to be 5%. Further, at P-450cam mutant Y96A [10], the “NADH turnover?” value was “+”.
Take `C1CCCCCC1` [cycloheptane]: the entries for the “Turnover rate measured” value (in [1]; on wild type P450cam [2]) were 42.5 nmole NADH/nmole P450cam/s and 4.4 nmole NADH/nmole P450cam/s, respectively.
